Results on eight compounds are retold here after publication PMC6891666, “Identifying Phlorofucofuroeckol-A as a Dual Inhibitor of Amyloid-β25-35 Self-Aggregation and Insulin Glycation: Elucidation of the Molecular Mechanism of Action” (Marine Drugs, 2019).

Where two headings read alike, the source gives them in different places. Some results are limits rather than exact numbers.

As usually defined, the inhibition is the drop in the measured response relative to a control, in per cent. Usually IC50 stands for the concentration that gives 50% inhibition. The term EC50 denotes the concentration at which the effect is half-maximal. Read a low EC50 as an effect from little substance.

For one series, the target named is T1, Aβ25-35 (Homo sapiens, UniProt P05067).
T1 construct: Gly1 and Phe1 for insulin) and C-terminals (Met35 for Aβ25-35; purchased Sigma-Aldrich
In words: Aβ25-35 self-aggregation assay (thioflavin-T fluorescence). The class given is biochemical. The note with it: for inhibition at 10 µM: read-out: inhibition of Aβ25-35 self-aggregation. On the procedure:
A monomeric Aβ25-35 solution was prepared using the method of Naldi and coworkers. A 2.5 μL aliquot of various concentrations of the tested phlorotannins in 50 mM phosphate buffer (pH 7.4) with 100 mM NaCl was added to 72.5 μL of Aβ25-35 sample (100 μM), and the mixture was incubated at 4 °C for 1 day. After incubation, 25 μM thioflavin T in 50 mM glycine-NaOH buffer (pH 8.5) was added to the reaction mixture. Fluorescence emission intensity was monitored at 490 nm (λexc = 446 nm) using a fluorescence microplate reader (Gemini XPS, Molecular Devices, Sunnyvale, CA, USA).

The target of series [1] is T2, bovine insulin (Bos taurus, UniProt P01317).
T2 construct: Phe1 and Asn3 in chain B and Ser12, Gln15, Glu17, and Asn18 in chain A of the insulin; purchased Sigma-Aldrich; host or cells: bovine pancreas
T2 sequence (P01317 25-54 limits assumed): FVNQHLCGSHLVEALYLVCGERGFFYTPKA
T2 sequence (P01317 85-105 limits assumed): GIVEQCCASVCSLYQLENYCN
In words: D-ribose-induced non-enzymatic insulin glycation assay. The note with it: for inhibitory activity on D-ribose-induced insulin glycation: at 100 µM. In kind it is biochemical. On the procedure:
(§1) Glycated bovine insulin was observed by fluorescence spectroscopy because AGEs are marked by a typical fluorescence emission at 410 nm (excitation at 320 nm). To verify our experimental condition, we used vanillin as a negative control for D-ribose-induced protein glycation and rutin as a positive control for d-glucose-induced protein glycation.
(§2) The insulin from bovine pancreas was dissolved in third grade distilled water to a concentration of 6 mg/mL and acidified to pH 2.4 using phosphoric acid to produce monomeric insulin. Then the insulin solution was neutralized to pH 7.0 using 10 M NaOH. Non-enzymatic glycation of insulin was initiated by mixing the insulin solution, 0.5 M D-ribose (or 1.5 M D-glucose) in 50 mM NaH2PO4 buffer (pH 7.0), and 10% dimethyl sulfoxide (DMSO) or the test phlorotannins in a 1:8:1 ratio and incubating the mixture at 37 °C for 6 days (2 weeks for D-glucose induced insulin glycation). Vanillin was used as a negative control for D-ribose induced insulin glycation, whereas rutin was used as a positive control for D-glucose induced insulin glycation. After incubation, the reaction mixture was measured at an excitation wavelength of 320 nm and emission wavelength of 410 nm using a fluorescence microplate reader (Gemini XPS).

For series [2] the following is noted: rats, intravenous injection; cited from earlier work.
The target of series [3] is T2, bovine insulin. In words: D-glucose-induced non-enzymatic insulin glycation assay. In kind it is biochemical. As to the method:
as §1, §2

In series [4] the test system is lipid peroxidation in rat brain homogenates. Put plainly: Lipid peroxidation (TBARS) assay in whole rat brain homogenates. In kind it is biochemical. The note with it: Fe2+-treated rat brain homogenates, MDA level, mean ± SD, n = 3. As to the method: Whole rat brain homogenates were prepared from freshly killed Sprague Dawley rats (male, 6-months old) and provided by the Aging Tissue Bank of Pusan National University. One g of whole rat brain was homogenized in 10 mL of cold 20 mM sodium phosphate buffer containing 140 mM KCl (pH 7.4) and centrifuged at 1300× g for 15 min.
A TBA reactive species (TBARS) assay was used to evaluate the antioxidant activity of the phlorotannins in the rat brain homogenates. An aliquot of the supernatant fraction of the homogenates was mixed with phlorotannins dissolved in 10% DMSO, freshly prepared ferric sulfate (250 μM), and distilled water in a 10:5:3:12 ratio, and then the reaction mixture was incubated at 37 °C for 1 h. The reaction was completed by adding a color reagent containing 0.8% TBA, 8.1% SDS, and a 7.5% (final concentration) acetic acid-NaOH solution (pH 3.4) in a 2:1:2 ratios. The mixture was boiled in a water bath for 1 h. After cooling, the reaction mixture was mixed with an equal volume of n-butanol and centrifuged at 1300× g for 10 min. The absorbance of the upper layer was measured at 532 nm using a spectrophotometer (Molecular Devices). The formation of TBARS was expressed as MDA nmol/mg protein using 1,1,3,3-tetramethoxypropane as a standard. Trolox was used as a positive control.

On the set-up of series [5]: method as in PMID 30744179. As to conditions: pharmacokinetic parameter prediction study; cited from earlier work.
Setting [6] is: at 10 μM, thioflavin-T fluorescence.
[7] abbreviates: thioflavin-T fluorescence, Aβ25-35 100 μM, mean ± SD, n = 3, read-out: IC50 Aβ25-35 Aggregation.
Setting [8] is: bovine insulin, D-ribose, mean ± SD, n = 3, read-out: IC50 D-Ribose-Induced Insulin Glycation.
[9] abbreviates: bovine insulin, D-glucose, 2 weeks incubation, mean ± SD, n = 3, read-out: IC50 D-Glucose-Induced Insulin Glycation.

`Oc1cc(O)cc(Oc2c(O)cc(O)c3c2Oc2c(O)cc(Oc4c(O)cc(Oc5c(O)cc(O)c6c5Oc5c(O)cc(O)cc5O6)cc4O)cc2O3)c1` [Dieckol, dieckol]: the inhibition at 10 µM at Aβ25-35 (setting [6]) is 67%. The IC50 is 7.93 ± 0.16 µM at Aβ25-35 (setting [7]), 63.7 ± 3.83 µM on bovine insulin [1] (setting [8]) and over 100 µM at bovine insulin [3] (setting [9]). Further, the BBB passage result in series [2] was “effectively passed the BBB”. The compound also returned an EC50 in series [4] of 13.5 ± 0.38 µM.
For the compound `Oc1cc(O)c2oc3cc(O)c4oc5cc(O)cc(O)c5oc4c3oc2c1` [Dioxinodehydroeckol, dioxinodehydroeckol], the IC50 against Aβ25-35 is 8.31 ± 0.23 µM; on bovine insulin [1], over 100 µM; against bovine insulin [3], over 100 µM. Further, the inhibition at 10 µM on Aβ25-35 turned out to be 66.1%. Moreover, on bovine insulin [1], the “inhibitory activity on D-ribose-induced insulin glycation” value was “weak or no inhibitory activity”. In series [4], this compound gave an EC50 of 12.4 ± 1.5 µM.
As to `Oc1cc(O)cc(Oc2c(O)cc(O)c3c2Oc2c(O)cc(O)cc2O3)c1` [Eckol, eckol], on Aβ25-35 (setting [6]), the inhibition at 10 µM came out at 34.5%. In addition, the IC50 is 34.4 ± 1.11 µM at Aβ25-35 (setting [7]), 259 ± 10.8 µM on bovine insulin [1] (setting [8]) and over 100 µM at bovine insulin [3] (setting [9]). The compound also displayed an EC50 in series [4] of 38.6 ± 1.16 µM. Also, in series [5], the CNS penetration result is “penetrates the CNS moderately”.
For `Oc1cc(O)cc(Oc2c(O)cc(O)c3c2Oc2c(O)cc4oc5c(Oc6cc(O)cc(O)c6)c(O)cc(O)c5c4c2O3)c1` [Phlorofucofuroeckol-A, phlorofucofuroeckol-A], at Aβ25-35 (setting [6]), the inhibition at 10 µM was 80%. The IC50 at Aβ25-35 (setting [7]) worked out at 6.18 ± 0.18 µM; on bovine insulin [1] (setting [8]), 29.5 ± 0.53 µM; at bovine insulin [3] (setting [9]), 43.5 ± 2.38 µM. In addition, in series [4], the EC50 came out at 11 ± 0.16 µM.
For `Oc1cc(O)cc(O)c1` [Phloroglucinol, phloroglucinol], the “inhibitory effect on Aβ25-35 self-aggregation” value on Aβ25-35 (at 50 μM) is recorded as “no inhibitory effect”. Besides, the IC50 at Aβ25-35 (setting [7]), on bovine insulin [1] (setting [8]) and at bovine insulin [3] (setting [9]) was over 100 µM throughout. Moreover, the “inhibitory activity on D-ribose-induced insulin glycation” value against bovine insulin [1] was “weak or no inhibitory activity”. On bovine insulin [3] (at 100 µM), this compound showed an inhibition at 100 µM of 40%. Besides, in series [4], the EC50 is over 75 µM.
Turning to `C[C@@H]1O[C@@H](OC[C@H]2O[C@@H](Oc3c(-c4ccc(O)c(O)c4)oc4cc(O)cc(O)c4c3=O)[C@H](O)[C@@H](O)[C@@H]2O)[C@H](O)[C@H](O)[C@H]1O` [Rutin, rutin, reference compound], the IC50 on bovine insulin [3] (setting [9]) worked out at 5.19 ± 1.35 µM.
For `Cc1c(C)c2c(c(C)c1O)CCC(C)(C(=O)O)O2` (stereo not shown) [Trolox, reference compound], the EC50 in series [4] is 49 ± 3.5 µM.
Consider `COc1cc(C=O)ccc1O` [Vanillin, vanillin, reference compound], for which the “activity on D-ribose-induced insulin glycation” value at bovine insulin [1] (at 500 µM, negative control) is given as “no activity”. For the same compound, on bovine insulin [1] (setting [8]), the IC50 was over 500 µM.
